According to paper PMC10907494, “Applications of biaryl cyclization in the synthesis of cyclic enkephalin analogs with a highly restricted flexibility” (Amino Acids, 2024):
Marks after values point to notes of the source that are not given here.

Biological target: μ-opioid receptor (MOR) (Rattus norvegicus, UniProt P33535)
Assay: biochemical
Conditions: for Radioligand SB at 30 μM of ligand (% of radioligand specific binding): mean and standard deviation; for % of radioligand specific binding at 3 μM, mean / % of radioligand specific binding at 10 μM, mean / % of radioligand specific binding at 30 μM, mean: initial screening; for MOR binding, times weaker than that of the linear counterpart: ratio of IC50 values, cyclic analog vs its linear counterpart
Description: The binding affinity of cyclic and linear enkephalin analogs for μ-opioid receptor (MOR) was determined in competitive radioligand binding assays using membrane preparations from rat brain homogenates. The homogenates were obtained as described previously (Matalińska et al. [2020]). The membrane preparations were incubated at 25 °C for 60 min in the presence of 1.0 nM [^3H]DAMGO (obtained from PerkinElmer, USA) and the set of concentrations of the assayed compound proper for a particular compound and type of determination (screening or a full-displacement curve).
For screening purposes, we performed the experiments with the following concentrations of the compounds tested: 30 μM, 10 μM, and 3 μM. For full-displacement curves, 10 concentrations ranging either from 0.03 nM to 1 μM or from 300 nM to 30 μM were used. The range was chosen for the single compounds in a manner such that the expected IC50 would fall in the middle of the range. In the case of several experiments, only five concentrations were used (they are marked in the results table).
Non-specific binding was measured in the presence of 10 μM naloxone. The assays were conducted with the assay buffer made of 50 mM Tris–HCl (pH 7.4), bacitracin (100 μg/ml), bestatin (30 μM), and captopril (10 μM), phenylmethylsulfonyl fluoride (PMSF, 30 μg/ml) in a total volume of 0.5 ml. After the incubation, a rapid filtration with a M-24 Cell Harvester (Brandel/USA) through GF/B Whatman glass fiber strips was conducted. The filters were soaked with 0.5% PEI just before the harvesting so as to minimize the extent of non-specific binding. Filter disks were cut from the sheet and placed separately in 24-well plates. The Optiphase Supermix scintillation solution (Perkin Elmer, USA) was added to each well. Radioactivity was measured in a scintillation counter MicroBeta LS, Trilux (PerkinElmer, USA). Displacement curves were drawn and the mean IC50 values were determined with SEMs (GraphPad Prism v. 5.0, San Diego, CA).

[1] = IC50 (estimation based on the screening results), estimated from screening at 30 μM, 10 μM and 3 μM, [3H]DAMGO, rat brain membranes
[2] = IC50 ± S.E.M., full-displacement curves, 1.0 nM [3H]DAMGO, rat brain membranes, 25 °C, 60 min, mean of 2 or 3 experiments unless footnoted
[3] = estimated IC50, estimated from initial screening at 30, 10 and 3 μM

Sequence of μ-opioid receptor (MOR) (P33535 whole entry): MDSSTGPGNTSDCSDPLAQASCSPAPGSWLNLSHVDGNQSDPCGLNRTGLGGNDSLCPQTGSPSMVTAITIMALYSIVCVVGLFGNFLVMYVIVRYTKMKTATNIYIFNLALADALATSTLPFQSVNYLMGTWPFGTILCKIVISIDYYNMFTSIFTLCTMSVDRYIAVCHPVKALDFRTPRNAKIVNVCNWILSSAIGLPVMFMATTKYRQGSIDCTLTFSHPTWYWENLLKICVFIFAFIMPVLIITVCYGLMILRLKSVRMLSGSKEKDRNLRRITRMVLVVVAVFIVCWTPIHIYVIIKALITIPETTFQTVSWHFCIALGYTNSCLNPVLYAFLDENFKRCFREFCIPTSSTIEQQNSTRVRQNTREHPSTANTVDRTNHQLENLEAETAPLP

Molecule | Radioligand SB at 30 μM of ligand (% of radioligand specific binding) ([3H]DAMGO) | IC50 [1] | % of radioligand specific binding at 3 μM, mean | % of radioligand specific binding at 10 μM, mean | % of radioligand specific binding at 30 μM, mean | IC50 [2] | MOR binding, times weaker than that of the linear counterpart | IC50 [3] | MOR binding reduced, times, compared to the parent [Leu^5]enk-NH2 (ratio of IC50 values vs [Leu^5]enk-NH2)
CC(C)C[C@H](NC(=O)[C@@H]1Cc2ccc(cc2)-c2ccc(cc2)C[C@H](N)C(=O)NCC(=O)NCC(=O)N1)C(N)=O [c-(Phe-p-Phe-p)-L-NH2, H-(cyclo-p,p)-[Phe-Gly-Gly-Phe]-Leu-NH2] | 73 ± 19% | > 30000 nM | 110% | 78% | 73% | – | – | – | –
CC(C)C[C@H](NC(=O)[C@@H]1Cc2ccc(O)c(c2)-c2ccc(cc2)C[C@H](N)C(=O)NCC(=O)NCC(=O)N1)C(N)=O [c-(Phe-p-Tyr-m)-L-NH2, H-(cyclo-p,m)-[Phe-Gly-Gly-Tyr]-Leu-NH2] | 17 ± 3% | – | 62^c) % | 34^c) % | 17^c) % | 6670 ± 262 nM | – | – | –
CC(C)C[C@H](NC(=O)[C@@H]1Cc2cccc(c2)-c2cc(ccc2O)C[C@H](N)C(=O)NCC(=O)NCC(=O)N1)C(N)=O [c-(Tyr-m-Phe-m)-L-NH2, H-(cyclo-m,m)-[Tyr-Gly-Gly-Phe]-Leu-NH2] | 12 ± 3% | – | 64% | 28% | 12% | 3080 nM | ~500 times | – | –
CC(C)C[C@H](NC(=O)[C@@H]1Cc2ccc(cc2)-c2cc(ccc2O)C[C@H](N)C(=O)NCC(=O)NCC(=O)N1)C(N)=O [c-(Tyr-m-Phe-p)-L-NH2, H-(cyclo-m,p)-[Tyr-Gly-Gly-Phe]-Leu-NH2] | 77 ± 4% | > 30000 nM | 99% | 78% | 77% | – | – | – | –
CSCC[C@H](NC(=O)[C@@H]1Cc2ccc(cc2)-c2cc(ccc2O)C[C@H](N)C(=O)NCC(=O)NCC(=O)N1)C(N)=O [c-(Tyr-m-Phe-p)-M-NH2, H-(cyclo-m,p)-[Tyr-Gly-Gly-Phe]-Met-NH2] | 12 ± 4% | – | 49% | 34% | 12% | 1370 ± 266 nM | ~500 times | ~1000 nM | –
CC(C)C[C@H](NC(=O)[C@@H]1Cc2ccc(O)c(c2)-c2cc(ccc2O)C[C@H](N)C(=O)NCC(=O)NCC(=O)N1)C(N)=O [c-(Tyr-m-Tyr-m)-L-NH2, H-(cyclo-m,m)-[Tyr-Gly-Gly-Tyr]-Leu-NH2] | 117 ± 1% | > 30000 nM | 87% | 102% | 117% | – | – | – | –
H-(cyclo-m,p)-[Tyr-Gly-Gly-Phe]-Leu-OH [c-(Tyr-m-Phe-p)-L-OH] | 36 ± 6% | – | 88% | 60% | 36% | – | – | – | –
H-FGGFL-NH2 [[Phe^1,Leu^5]enk-NH2, H-Phe-Gly-Gly-Phe-Leu-NH2, reference compound] | 5 ± 1% | – | 26^c) % | 13^c) % | 5^c) % | 596 ± 48.8 nM | – | < 3000 nM | –
H-Phe-Gly-Gly-Tyr-Leu-NH2 (H-FGGYL-NH2) [[Phe^1,Tyr^4,Leu^5]enk-NH2, reference compound] | 43 ± 11% | – | 85% | 61% | 43% | – | – | – | –
H-YGGYL-NH2 [[Tyr^4,Leu^5]enk-NH2, H-Tyr-Gly-Gly-Tyr-Leu-NH2, reference compound] | – | – | – | – | – | 222 ± 15.9 nM | – | – | about 40 times
